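Following 48 hours of exposure in 96-well plates, responses at five concentrations were used to interpolate endpoints linearly. GI50 is the concentration that inhibits growth by half.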 Activity calls are given as the source filed them. No stated cut-off is given here; in the data, active = GI50 up to about 1.1 µM and inactive = higher.
Legend:
Assay in all cases: DTP human tumour cell line panel, 48 h
HL-60 = test system: HL-60
NCI-H226 = test system: NCI-H226
COLO 205 = test system: COLO 205
DU-145 = test system: DU-145
SK-MEL-5 = test system: SK-MEL-5
NCI/ADR-RES = test system: NCI/ADR-RES
CCRF-CEM = test system: CCRF-CEM
SK-MEL-28 = test system: SK-MEL-28
TK-10 = test system: TK-10
SF-295 = test system: SF-295
SK-MEL-2 = test system: SK-MEL-2
HOP-92 = test system: HOP-92
Hs-578T = test system: Hs-578T
MDA-N = test system: MDA-N
UO-31 = test system: UO-31
OVCAR-8 = test system: OVCAR-8
HCT-116 = test system: HCT-116
HT-29 = test system: HT-29
OVCAR-4 = test system: OVCAR-4

Row | SMILES | GI50 (HL-60) | GI50 (NCI-H226) | GI50 (COLO 205) | GI50 (DU-145) | GI50 (SK-MEL-5) | GI50 (NCI/ADR-RES) | GI50 (CCRF-CEM) | GI50 (SK-MEL-28) | GI50 (TK-10) | GI50 (SF-295) | GI50 (SK-MEL-2) | GI50 (HOP-92) | GI50 (Hs-578T) | GI50 (MDA-N) | GI50 (UO-31) | GI50 (OVCAR-8) | GI50 (HCT-116) | GI50 (HT-29) | GI50 (OVCAR-4)
1 | O=C(O)CNC(=O)c1ccc(-c2ccccc2)cc1 | > 100 µM (inactive) | > 100 µM (inactive) | > 100 µM (inactive) | > 100 µM (inactive) | > 100 µM (inactive) | > 100 µM (inactive) | > 100 µM (inactive) | > 100 µM (inactive) | > 100 µM (inactive) | > 100 µM (inactive) | > 100 µM (inactive) | 61.1 µM (inactive) | 75.7 µM (inactive) | > 100 µM (inactive) | > 100 µM (inactive) | > 100 µM (inactive) | > 100 µM (inactive) |  | 
2 | C/C=C/[C@H](O[Si](C)(C)C(C)(C)C)[C@@H](O)/C=C/C(=O)OCC |  | 29.4 µM (inactive) | 20.1 µM (inactive) | 43.8 µM (inactive) | 16.3 µM (inactive) | 26.8 µM (inactive) | 14.3 µM (inactive) | 16.9 µM (inactive) | 27.9 µM (inactive) | 20.9 µM (inactive) | 26.5 µM (inactive) | 23.8 µM (inactive) | 29.9 µM (inactive) | 19.6 µM (inactive) | 24 µM (inactive) | 18.6 µM (inactive) | 17.9 µM (inactive) | 21.5 µM (inactive) | 11.9 µM (inactive)
3 | COc1ccc2nc(-c3ccccc3)c(=O)[nH]c2c1 | > 100 µM (inactive) | > 100 µM (inactive) | > 100 µM (inactive) | > 100 µM (inactive) | > 100 µM (inactive) | > 100 µM (inactive) | > 100 µM (inactive) | > 100 µM (inactive) | > 100 µM (inactive) | > 100 µM (inactive) |  | > 100 µM (inactive) | > 100 µM (inactive) | > 100 µM (inactive) |  | > 100 µM (inactive) | > 100 µM (inactive) | > 100 µM (inactive) | 
4 | O=c1c(SSc2coc3cc(F)ccc3c2=O)coc2cc(F)ccc12 | 8.59 µM (inactive) | > 100 µM (inactive) | 17.4 µM (inactive) | 47.3 µM (inactive) | 13.7 µM (inactive) | 17.3 µM (inactive) | 3.58 µM (inactive) | 5.58 µM (inactive) | 35.2 µM (inactive) | 6.68 µM (inactive) |  |  | 14.3 µM (inactive) | 13.5 µM (inactive) | 11.4 µM (inactive) | 7.78 µM (inactive) | 5.14 µM (inactive) | 15.3 µM (inactive) | 
5 | CC(C)(O)CCc1ccc(O)c2c(=O)c3c(O)c4c(cc3oc12)O[C@H]1OC=C[C@@]41O [AUSTOCYSTIN D] |  | < 0.01 µM (active) | 0.0109 µM (active) | < 0.01 µM (active) | 0.0102 µM (active) | < 0.01 µM (active) | 9.79 µM (inactive) | 0.286 µM (active) | < 0.01 µM (active) | 8.87 µM (inactive) | < 0.01 µM (active) | 0.251 µM (active) | 10.2 µM (inactive) | < 0.01 µM (active) | < 0.01 µM (active) | < 0.01 µM (active) | 0.0199 µM (active) | 1.24 µM (inactive) | < 0.01 µM (active)
6 | N#Cc1nc(CCCCCN2C(=O)c3ccccc3C2=O)oc1N |  | > 100 µM (inactive) | > 100 µM (inactive) | > 100 µM (inactive) | > 100 µM (inactive) | > 100 µM (inactive) | 1.91 µM (inactive) | > 100 µM (inactive) | > 100 µM (inactive) | > 100 µM (inactive) | > 100 µM (inactive) |  | > 100 µM (inactive) | > 100 µM (inactive) | 94.4 µM (inactive) | > 100 µM (inactive) | > 100 µM (inactive) | > 100 µM (inactive) | > 100 µM (inactive)
7 | CC(C)(/N=N/C(C)(C)C1=NCCN1)C1=NCCN1 |  | > 100 µM (inactive) | > 100 µM (inactive) | > 100 µM (inactive) | > 100 µM (inactive) | > 100 µM (inactive) | > 100 µM (inactive) | > 100 µM (inactive) | > 56 µM (inactive) | > 100 µM (inactive) | > 100 µM (inactive) |  | > 100 µM (inactive) | > 100 µM (inactive) | > 74 µM (inactive) | > 100 µM (inactive) | > 100 µM (inactive) | > 100 µM (inactive) | > 100 µM (inactive)
8 | NNC(=O)CCSc1ccccc1 | > 100 µM (inactive) | > 100 µM (inactive) | > 100 µM (inactive) | > 100 µM (inactive) | > 100 µM (inactive) | > 100 µM (inactive) | > 100 µM (inactive) | > 100 µM (inactive) | > 100 µM (inactive) | > 100 µM (inactive) | > 100 µM (inactive) |  | > 100 µM (inactive) | > 100 µM (inactive) | > 100 µM (inactive) | > 100 µM (inactive) | > 100 µM (inactive) | > 100 µM (inactive) | > 100 µM (inactive)
9 | Cc1cccc(Cn2c3c(c4cc(O)ccc42)C(=O)c2ccccc2C3=O)c1 |  | 15.7 µM (inactive) | > 78.2 µM (inactive) | > 100 µM (inactive) | 18.3 µM (inactive) | 6.84 µM (inactive) | 28.1 µM (inactive) | > 39.6 µM (inactive) | 15.5 µM (inactive) | 3.89 µM (inactive) | > 91.2 µM (inactive) |  | 24.4 µM (inactive) | 68.4 µM (inactive) | > 54.2 µM (inactive) | 5.57 µM (inactive) | 3.05 µM (inactive) | > 58.5 µM (inactive) | 1.88 µM (inactive)
10 | CC(=O)OCC1OC(SC2=N/C(=C\c3cc4c(=O)c5ccccc5sc4s3)C(=O)N2c2ccccc2)C(OC(C)=O)C(OC(C)=O)C1OC(C)=O (stereo not drawn) | 20.1 µM (inactive) | > 100 µM (inactive) | > 100 µM (inactive) | > 100 µM (inactive) | > 100 µM (inactive) | > 100 µM (inactive) |  | > 100 µM (inactive) | > 100 µM (inactive) | > 100 µM (inactive) | 32 µM (inactive) |  | > 100 µM (inactive) | > 100 µM (inactive) | > 100 µM (inactive) | > 100 µM (inactive) | 37.6 µM (inactive) | > 100 µM (inactive) | 74.3 µM (inactive)
11 | O=C1C(Cl)=C(Oc2ccc([N+](=O)[O-])cc2)C(=O)c2c(O)ccc(O)c21 | 4.65 µM (inactive) | > 100 µM (inactive) | 19.9 µM (inactive) | > 100 µM (inactive) | > 84.1 µM (inactive) | > 100 µM (inactive) | 2.12 µM (inactive) | > 50.2 µM (inactive) | 44.1 µM (inactive) | > 100 µM (inactive) |  | 28.3 µM (inactive) | > 100 µM (inactive) | 21 µM (inactive) | > 100 µM (inactive) | > 100 µM (inactive) | 49.3 µM (inactive) | 33.9 µM (inactive) | 51.8 µM (inactive)
12 | CC(C)(Oc1ccc(Cl)cc1)C(=O)N(C(=O)N1CCCCC1)c1ccccc1 | 2.16 µM (inactive) | 17.6 µM (inactive) | 17.4 µM (inactive) | 14.7 µM (inactive) | 10.4 µM (inactive) | 14.5 µM (inactive) | 16.7 µM (inactive) | 15.2 µM (inactive) |  |  | 13.1 µM (inactive) |  | 16.9 µM (inactive) | 24.5 µM (inactive) | 10.8 µM (inactive) | 14.1 µM (inactive) | 5.32 µM (inactive) | 8.34 µM (inactive) | 
13 | O=C1/C(=C/c2c(Cl)[nH]c3ccccc23)c2ccccc2N1c1ccccc1 | 3.01 µM (inactive) |  | 1.79 µM (inactive) | 7.43 µM (inactive) | 2.89 µM (inactive) | 2.24 µM (inactive) | 3.9 µM (inactive) | 10.4 µM (inactive) | 11.2 µM (inactive) | 2.44 µM (inactive) | 3.36 µM (inactive) | 9.44 µM (inactive) | 3.9 µM (inactive) | 1.85 µM (inactive) | 6.46 µM (inactive) | 4.35 µM (inactive) | 4.6 µM (inactive) | 3.53 µM (inactive) | 
14 | CCCCCCC(CCl)c1sc(-c2csc(CCNC(=O)OC(C)(C)C)n2)nc1C(=O)OC (stereo not drawn) | 17.3 µM (inactive) |  | 35.6 µM (inactive) | 33.7 µM (inactive) | 4.37 µM (inactive) | 2.32 µM (inactive) | 17.2 µM (inactive) | 28.6 µM (inactive) | 20.4 µM (inactive) | 32.2 µM (inactive) | 11.7 µM (inactive) | 40.8 µM (inactive) | 16.2 µM (inactive) | 26.7 µM (inactive) | 14.9 µM (inactive) | 24.6 µM (inactive) | 15.5 µM (inactive) | 20.6 µM (inactive) | 9.98 µM (inactive)
15 | O=c1oc2cccnc2n1CCN1CCN(c2ccc(Oc3ccccc3)cc2)CC1 | 8.04 µM (inactive) |  |  | > 100 µM (inactive) | 10.2 µM (inactive) | 32.5 µM (inactive) | 7.21 µM (inactive) | > 100 µM (inactive) | 61.8 µM (inactive) | 43 µM (inactive) | > 100 µM (inactive) | 57.3 µM (inactive) | > 100 µM (inactive) | 79.6 µM (inactive) | 41.1 µM (inactive) | > 100 µM (inactive) | 33.6 µM (inactive) | 7.82 µM (inactive) | 15.7 µM (inactive)
16 | COc1ccc(CNc2nc(NCc3ccc(OC)cc3)nc(NC(C)C)n2)cc1 | 4.08 µM (inactive) |  | 9.57 µM (inactive) | 19.2 µM (inactive) | 4.85 µM (inactive) | 4.58 µM (inactive) |  | 46.8 µM (inactive) | 17.9 µM (inactive) | 3.96 µM (inactive) | 6.5 µM (inactive) | 3.37 µM (inactive) | 13.5 µM (inactive) | 2.69 µM (inactive) | 19.5 µM (inactive) | 13.1 µM (inactive) | 3.18 µM (inactive) | 5.41 µM (inactive) | 20.3 µM (inactive)

From ChEMBL document CHEMBL1201862, “PubChem BioAssay data set” (2004)
